# Numbered stars: 1 amine (or outer) side, 2 acyl side, 3 side chain; on linkers, the order of the positions; unused ones are H or OH. Bridge positions count the residues as written; N and C are the ends. Square brackets hold non-standard residues; d marks the D form. Peptide text beside a SMILES is read from it. * marks the point of attachment. C20 diacid = O=C(O)CCCCCCCCCCCCCCCCCCC(=O)*; γGlu = O=C(O)[C@H](CCC(=O)[*:2])N[*:1]; NMeI = CC[C@H](C)[C@H](NC)C(=O)O; Sar = CNCC(=O)O
# Tests used:
# [1] = test system: rats self-selecting between a low-fat diet and a high-fat diet; assay: Food preference (FP) and development of obesity in rats fed on a high-fat diet (HFD); type: in vivo, Male Sprague Dawley rats; settings: 30 nmol/kg sc, QW, 4 weeks
# Procedure: (§1) Whole-blood glucose levels were determined on tail-vein blood samples by the Biosen (EKF Diagnostic, Germany) enzyme-based electrode method. Blood samples were analyzed for glycated hemoglobin (HbA1c) using a Cobas c111 analyzer (Roche Diagnostics, Mannheim, Germany). Plasma insulin levels were measured using a Meso Scale Discovery (MSD) system (Rockville, MD, USA). Liver fat content was determined by magnetic resonance (MR) scanning using an Echo systems MR scanner. Fat depots were measured by weighing of excised fat.
# (§2) Male Sprague Dawley rats obtained from Taconic A/S, Denmark, were used in this study. The animals arrived at least 7 days before the study start to allow acclimatization to experimental conditions. From arrival and throughout the study, the rats were housed in groups of 2 (n = 2) in a light-, temperature- and humidity-controlled room (reversed 12/12 h light/dark cycle: lights turned off during day-time and on during night-time; temperature 20-22°C; relative humidity 50-80%) and maintained on a HFD (60% of total energy from fat, D12492, Research Diet Inc., New Brunswick, USA) for 2 weeks. Animals had access ad libitum to water (domestic quality tap water with citric acid added to pH ∼ 3.6) during the entire study. The rats were stratified according to body weight (primary) and % body weight gain from the beginning of feeding with HFD (secondary). Three days before the initiation of treatment the rats were allowed to self-select between a low-fat diet (LFD, standard chow, 11 % of total energy from fat, Atromin™ 1324, Brogaarden A/S, Gentofte, Denmark) and a high-fat diet, and they remained on the self-selected regimen for the duration of the study. Rats were treated for four weeks with Compound 18 [30 nmol/kg sc, once weekly (QW)] or vehicle.
# Statistical analyses were performed using GraphPad™ Prism version 5. […]
# HFD-fed rats = assay: Development of obesity in rats fed on a high-fat diet (HFD); type: in vivo, Male Sprague Dawley rats
# Procedure: as §1
# (§3) Male Sprague Dawley rats obtained from Taconic A/S, Denmark, were used in this study. The animals arrived at least 7 days before the study start to allow acclimatization to experimental conditions. From arrival and throughout the study, the rats were housed in groups of 2 (n = 2) in a light-, temperature- and humidity-controlled room (reversed 12/12 h light/dark cycle: lights turned off during day-time and on during night-time; temperature 20-22°C; relative humidity 50-80%) and maintained on a HFD (60% of total energy from fat, D12492, Research Diet Inc., New Brunswick, USA) for 2 weeks. Animals had access ad libitum to water (domestic quality tap water with citric acid added to pH ∼ 3.6) during the entire study.The rats were stratified according to body weight (primary) and % body weight gain from the beginning of feeding with HFD (secondary), and treated for 4 weeks with Compound 18 [1, 5 and 30 nmol/kg sc, once weekly (QW)] and Compound 18 (5 nmol/kg sc, every 4th day), and with comparison/reference compounds NN96 (a pramlintide analogue, see Example 5; 30 nmol/kg sc, QW) and the marketed human GLP-1 receptor agonist liraglutide [50 nmol/kg sc, twice daily (bid)], respectively.
# (§4) Post-hoc Dunnett's multiple comparison tests were conducted. When appropriate, the two-way ANOVA test was used followed by Bonferroni post tests; p < 0.05 was in all cases considered statistically significant.
# (§5) The preventive effects of Compound 18 of the present invention on the development of obesity were investigated by measurement of body weight, food intake, water intake, blood glucose levels, plasma insulin levels, liver fat mass and fat depots.
# [2] = test system: male Zucker diabetic fatty (ZDF) rats; assay: Efficacy testing: glycemic control in Zucker diabetic fatty rats; type: in vivo; settings: for terminal HbA1c levels: 4 weeks, vehicle 8.7 ± 0.2; for non-fasting blood glucose levels on day 13 and on day 27: compared to the vehicle treated rats, P < 0.001; for fasting blood glucose levels: terminal, Compound 82 3, 30, and 100 nmol/kg, Compound 18 30 nmol/kg, P < 0.001 vs. vehicle
# Procedure: as §1
# 84 male Zucker diabetic fatty (ZDF) rats (9-10 weeks of age) were used in this study. The animals were housed in groups of n = 2. Stratification of the animals was based on non-fasting blood glucose (primary), changes in non-fasting blood glucose measured from the arrival of the animals until one week before the initiation of the study (secondary) and body weight (tertiary). The animals were further divided into two "teams" with a pair-fed group (group 2) allocated to team 2. Animals from group 2 were pair-fed in order to compare between the contribution made by reduced food intake and by drug-induced effects on glycemic control. The amount of food eaten by the animals treated with Compound 82 (30 nmol/kg, team 1) each day was determined, and the same amount was given to a vehicle-treated pair-fed group of animals the following day.
# Rats were treated for 4 weeks with Compound 82 (3, 30 and 100 nmol/kg, sc, every (ev.) 5th day), Compound 18 (30 nmol/kg sc, every 5th day), or the GLP-1 analogue liraglutide (40 nmol/kg sc, twice daily (bid)).
# The effects of the compounds on glycemic control were investigated by measurement of non-fasting and fasting blood glucose levels and HbA1c levels.
# Statistical analyses were performed using GraphPad™ Prism version 5. The measured parameters were compared using one- way ANOVA followed by Dunnett's multiple comparison test. Comparison between the pair-fed vehicle-treated group and the Compound 82 (30 nmol/kg) group was done using Student's two-tailed and unpaired t-test. Differences were considered statistically significant at p < 0.05.
# Male Sprague Dawley rats [3] = assay: Efficacy testing: development of obesity in rats fed on a high-fat diet (HFD); type: in vivo
# Procedure: as §1, §3, §4, §5
# Male Sprague Dawley rats [4] = assay: Efficacy testing: food preference (FP) and development of obesity in rats fed on a high-fat diet (HFD); type: in vivo; settings: rats self-selecting LFD/HFD, 30 nmol/kg sc, QW, 4 weeks
# Procedure: as §1, §2
# Statistical analyses were performed using GraphPad™ Prism version 5.
# The efficacy of Compound 18 in relation to change in food preference and in relation to the development of obesity were investigated by measurement of food preference, body weight, food intake, water intake, blood glucose levels, plasma insulin levels, mass of liver fat and mass of fat depots.
structure (smiles),measurement,setting,value
"CC[C@H](C)[C@@H](C(=O)N[C@@H](CC(C)C)C(=O)N[C@@H](CO)C(=O)N[C@@H](CO)C(=O)N[C@H](C(=O)N[C@@H](CC(N)=O)C(=O)N[C@H](C(=O)NCC(=O)N[C@@H](CO)C(=O)N[C@@H](CC(N)=O)C(=O)N[C@H](C(=O)N1CCC[C@H]1C(N)=O)[C@@H](C)O)C(C)C)[C@@H](C)O)N(C)C(=O)[C@H](C)NC(=O)CN(C)C(=O)[C@H](Cc1ccccc1)NC(=O)[C@H](CC(N)=O)NC(=O)[C@H](CC(N)=O)NC(=O)[C@H](CO)NC(=O)[C@H](CO)NC(=O)[C@H](CCCNC(=N)N)NC(=O)[C@H](Cc1c[nH]cn1)NC(=O)[C@H](CC(C)C)NC(=O)[C@H](Cc1ccccc1)NC(=O)[C@H](CCC(=O)O)NC(=O)[C@H](C)NC(=O)[C@H](CC(C)C)NC(=O)[C@H](CCCNC(=N)N)NC(=O)[C@H](CCC(N)=O)NC(=O)[C@@H](NC(=O)[C@H](C)NC(=O)[C@@H]1CSSC[C@H](NC(=O)[C@H](CCCNC(=N)N)NC(=O)CC[C@H](NC(=O)CCCCCCCCCCCCCCCCCCC(=O)O)C(=O)O)C(=O)N[C@@H](CC(N)=O)C(=O)N[C@@H]([C@@H](C)O)C(=O)N[C@@H](C)C(=O)N[C@@H]([C@@H](C)O)C(=O)N1)[C@@H](C)O [Compound 18, [19CD]-isoGlu-RC()NTATC()ATQRLAEFLHRSSNNF-Gly(Me)-A-Ile(Me)-LSSTNVGSNTP-NH2] ({C20 diacid-γGlu}-RCNTATCATQRLAEFLHRSSNNF[Sar]A[NMeI]LSSTNVGSNTP-NH2; disulfide 2-7)",caloric intake deriving from LFD,[1],significant increase in caloric intake deriving from LFD
same,body weight gain,[1]; rats self-selecting LFD/HFD,reduction of body weight gain
same,total caloric intake combined from both diets,[1]; rats self-selecting LFD/HFD,a decrease in the total caloric intake
same,anti-obesity effects with administration every 4th day,"HFD-fed rats; 5 nmol/kg sc, every 4th day, 4 weeks",effects similar to those of Compound 18 dosed QW
same,mass of fat depots,HFD-fed rats; 4 weeks treatment,a decrease in mass of fat depots
same,food intake,"HFD-fed rats; 4 weeks treatment, vs. vehicle",significantly decreased food intake
same,terminal liver fat mass,"HFD-fed rats; 5 and 30 nmol/kg, QW, 4 weeks",a decrease in terminal liver fat mass
same,terminal HbA1c levels,[2]; 30 nmol/kg sc every 5th day,5.4 ± 0.1%
same,non-fasting blood glucose levels on day 13 and on day 27,[2],significantly lower
same,fasting blood glucose levels,[2],significantly decreased
same,mass of fat depots,Male Sprague Dawley rats [3]; 4 weeks treatment,decrease
same,food intake,"Male Sprague Dawley rats [3]; 4 weeks treatment, vs. vehicle",significantly decreased
same,terminal liver fat mass,"Male Sprague Dawley rats [3]; 5 and 30 nmol/kg, QW, 4 weeks",decrease
same,reduction in body weight gain at the end of the study,"Male Sprague Dawley rats [3]; high-dose group (30 nmol/kg sc, QW), 4 weeks",26%
same,body weight gain,Male Sprague Dawley rats [4],reduction
same,caloric intake deriving from LFD,Male Sprague Dawley rats [4],significant increase
same,terminal blood glucose levels,Male Sprague Dawley rats [4],unaffected
same,total caloric intake combined from both diets,Male Sprague Dawley rats [4],decrease
"CC[C@H](C)[C@@H](C(=O)N[C@@H](CC(C)C)C(=O)N[C@@H](CO)C(=O)N[C@@H](CO)C(=O)N[C@H](C(=O)N[C@@H](CCC(=O)O)C(=O)N[C@H](C(=O)NCC(=O)N[C@@H](CO)C(=O)N[C@@H](CCC(=O)O)C(=O)N[C@H](C(=O)N1CCC[C@H]1C(N)=O)[C@@H](C)O)C(C)C)[C@@H](C)O)N(C)C(=O)[C@H](C)NC(=O)CN(C)C(=O)[C@H](Cc1ccccc1)NC(=O)[C@H](CO)NC(=O)[C@H](CO)NC(=O)[C@H](CCCNC(=N)N)NC(=O)[C@H](Cc1c[nH]cn1)NC(=O)[C@H](CC(C)C)NC(=O)[C@H](Cc1ccccc1)NC(=O)[C@H](CCC(=O)O)NC(=O)[C@H](C)NC(=O)[C@H](CC(C)C)NC(=O)[C@H](CCCNC(=N)N)NC(=O)[C@H](CCC(N)=O)NC(=O)[C@@H](NC(=O)[C@H](C)NC(=O)[C@@H]1CSSC[C@H](NC(=O)[C@H](CCCNC(=N)N)NC(=O)CC[C@H](NC(=O)CCCCCCCCCCCCCCCCCCC(=O)O)C(=O)O)C(=O)N[C@@H](CC(N)=O)C(=O)N[C@@H]([C@@H](C)O)C(=O)N[C@@H](C)C(=O)N[C@@H]([C@@H](C)O)C(=O)N1)[C@@H](C)O [Compound 82, [19CD]-isoGlu-RC()NTATC()ATQRLAEFLHRSSF-Gly(Me)-A-Ile(Me)-LSSTEVGSETP-NH2] ({C20 diacid-γGlu}-RCNTATCATQRLAEFLHRSSF[Sar]A[NMeI]LSSTEVGSETP-NH2; disulfide 2-7)",terminal HbA1c levels,[2]; 3 nmol/kg sc every 5th day,5.6 ± 0.2%
same,terminal HbA1c levels,[2]; 30 nmol/kg sc every 5th day,5.4 ± 0.1%
same,HbA1c levels compared to the pair-fed group,"[2]; 30 nmol/kg, P < 0.05",significant reductions
same,terminal HbA1c levels,[2]; 100 nmol/kg sc every 5th day,5.4 ± 0.1%
same,non-fasting blood glucose levels on day 13 and on day 27,[2],significantly lower
same,fasting blood glucose levels,[2],significantly decreased

# Source: patent EP3046573B1, “AMYLIN ANALOGUES” (Zealand Pharma A/S, priority 2013, dated 2015)
